Experimental data: PubChem BioAssay (NCI)
“And” between values parts separate entries of the source, which are not always exact repeats. Identical values can stand only once.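 Values below derive from 48-hour exposures of cells grown in 96-well plates, with endpoints linearly interpolated between the two concentrations bracketing the appropriate inhibition level. Here, GI50 denotes the concentration required for 50% inhibition of growth. The concentration for full growth arrest is given as TGI.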

Experiments:
Assay in all cases: inhibition of tumour cell growth, NCI panel, 48 h
[1] = system: 786-0 renal
[2] = system: A498 renal
[3] = system: ACHN renal
[4] = system: EKVX NSCLC
[5] = system: HL-60(TB) leukemia
[6] = system: HOP-92 NSCLC
[7] = system: KM12 colon
[8] = system: MDA-MB-435
[9] = system: OVCAR-3 ovarian
[10] = system: TK-10 renal

Row | SMILES | TGI [1] | TGI [2] | TGI [3] | TGI [4] | TGI [5] | TGI [6] | TGI [7] | TGI [8] | TGI [9] | TGI [10] | GI50 [3] | GI50 [7] | GI50 [8] | GI50 [9]
1 | CC(=O)OC(CCC1(C)OC1COc1ccc(CCNC(=O)C=C(C)C)cc1)C(C)(C)OC(C)=O (centres undefined) | > 100 µM | > 100 µM | > 100 µM | > 100 µM | > 56.7 µM | > 100 µM | 78.4 µM | 40.4 µM | > 100 µM | > 100 µM |  |  |  | 
2 | C=C1CCCCCCCCC/C=C/1SCCCSC | > 100 µM | > 100 µM | > 100 µM | > 100 µM | > 100 µM | > 100 µM | > 100 µM | > 100 µM | > 100 µM | > 100 µM |  |  |  | 
3 | O=C1C(Br)=CC2(C=C1Br)CCNC1=C2C(=O)c2ncccc2C1=O | 3.11 µM | 2.62 µM | 1.94 µM | 3.3 µM | 8.26 µM | 4.38 µM | 3.53 µM | 0.354 µM | 4.56 µM | 4.73 µM |  |  |  | 
4 | CC(=O)NC1C(Sc2ncn(C3OC(CO)C(O)C(O)C3NC(C)=O)n2)OC(CO)C(O)C1O (centres undefined) | > 100 µM | > 100 µM | > 100 µM | > 100 µM | > 100 µM | > 100 µM | > 100 µM | > 100 µM | > 100 µM | > 100 µM |  |  |  | 
5 | Cc1ccnc2c1C(=O)C1=C(OC(C)(C)CC1O)C2=O (centres undefined) | 16.4 µM | 32 µM | 22.9 µM | 18.5 µM | > 24 µM | 24.6 µM | 15 µM | 2.73 µM | 7.18 µM | 24.4 µM |  |  |  | 
6 | Oc1c(Br)ccc2cccnc12 | > 43.2 µM | 51.8 µM | 55.8 µM | > 66.3 µM | 1.32 µM | 69.7 µM | > 100 µM | > 100 µM | > 23.3 µM | > 100 µM |  |  |  | 
7 | CC(=O)c1ccc2c(c1)C(=O)c1sc(C(C)=O)cc1C2=O | 50 µM | 50 µM | 1.54 µM and 1.5 µM | 3.43 µM and 2.58 µM | 50 µM | 50 µM | 2.34 µM and 1.48 µM | 2.63 µM and 0.33 µM | 2.36 µM and 1.85 µM | 5.55 µM | 0.405 µM | 0.313 µM | 0.176 µM | 0.329 µM
8 | N#Cc1cc2c(cc1Cl)Sc1nnc(Nc3ccccc3)n1S2(=O)=O | 8.49 µM | 20.8 µM | 3.32 µM | 7.95 µM | 13.6 µM | 4.74 µM | 4.65 µM | 4.8 µM | 3.82 µM | 13.3 µM |  |  |  | 
9 | CC(=O)SC(C[N+](=O)[O-])c1ccc2c(c1)OCO2 (centres undefined) | 8.95 µM | 18.3 µM | 21.9 µM | 52.5 µM | 4.67 µM | 34.6 µM | 12.7 µM | 17.6 µM | 16.6 µM | 28.2 µM |  |  |  | 
10 | CC1(C)OP(=O)(O)C=C1Sc1ccc([N+](=O)[O-])cc1[N+](=O)[O-] | > 100 µM | > 100 µM | > 100 µM | > 100 µM | > 100 µM | > 100 µM | > 100 µM | > 100 µM | > 100 µM | > 100 µM |  |  |  | 
11 | COC(=O)[C@@H](NC(=O)N(Cc1ccccc1)C[C@H](CC(C)C)NC(=O)[C@@H](NC(=O)OC(C)(C)C)C(C)C)C(C)C | > 100 µM | > 100 µM | > 100 µM | > 100 µM | > 100 µM | > 100 µM | > 100 µM | > 100 µM | > 100 µM | > 100 µM |  |  |  | 
12 | CC1(C)O[C@H]2OC(CO)C(N=[N+]=[N-])[C@H]2O1 (some centres undefined) | > 100 µM | > 100 µM | > 100 µM | > 100 µM | > 100 µM | > 100 µM | > 100 µM | > 100 µM | > 100 µM | > 100 µM |  |  |  | 
13 | COCn1cnc2c(=O)nc(SC)n(-c3ccccc3)c21 | > 100 µM | > 100 µM | > 100 µM | > 100 µM | > 100 µM | > 100 µM | > 100 µM | > 100 µM | > 100 µM | > 100 µM |  |  |  | 
14 | CCOC(=O)C(Cc1ccc(O)cc1)Nc1nc(=O)c2c(=O)oc(Cl)cc2o1 (centres undefined) | 22.3 µM | 35.3 µM | 24.7 µM | 25.5 µM | 13.5 µM | 25.9 µM | 22.5 µM | 20.4 µM | 20 µM | 20.6 µM |  |  |  | 
15 | O=C1CCSCCC(=O)Nc2ccccc2N1 | > 100 µM | > 100 µM | > 100 µM | > 100 µM | > 100 µM | > 100 µM | > 100 µM | > 100 µM | > 100 µM | > 100 µM |  |  |  | 
16 | O=[N+]([O-])c1c(F)c(F)c2c(c1F)N(CCCCCl)c1ccccc1S2 | 23.8 µM | 21.1 µM | 30.4 µM | 41.3 µM | 5.7 µM | 39 µM | 23.5 µM | 20.2 µM | 19.5 µM | 32.5 µM |  |  |  | 
17 | CS(=O)(=O)N1CC(CCl)c2ccc(O)cc21 (centres undefined) | 11.6 µM | 3.78 µM | 12.4 µM | 16.3 µM | 6.19 µM | 9.05 µM | 7.83 µM | 3.86 µM | 9.3 µM | 6.98 µM |  |  |  | 
